Counter-ions that a name gives are not always drawn. Like-named read-outs stand apart in the source and are kept apart here.

We go through seven compounds from paper PMC5248655 (ACS chemical neuroscience, 2015).

Series [1] concerns LRP1. Briefly: Western blot of LRP1 expression in SCHs. To be noted: 48 h treatment; for increase in LRP1 expression: n = 4. In kind it is cell-based, rat.
The subject of series [2] is P-gp. The experiment in a line: Western blot of P-gp expression in SCHs. In kind it is cell-based, rat. To be noted: 48 h treatment, vs control cells, n = 4.
Series [3] concerns C57BL/6 wild-type mice. The note with it: compared to control mice; cited from earlier work.
The subject of series [4] is sandwich-cultured primary rat hepatocytes (SCHs). The note with it: induction of LRP1 and P-gp; cited from earlier work.
For series [5], the system named is Sprague–Dawley male rats. To be noted: n = 5; for hepatic uptake (extravascular extraction, E) of ^125I-Aβ40: absolute value.
The subject of series [6] is P-gp. To be noted: 26 day treatment, Western blot, n = 5. Background: A western blot detects proteins with antibodies after separation by electrophoresis.
Series [7] has as its system P-gp. The experiment in a line: Western blot of P-gp expression in RBE4 cells. In kind it is cell-based, rat. The note with it: 5 µM, 48 h, normalized, vs control, n = 4.
The test system of series [8] is Sprague–Dawley male rats. Briefly: TCA precipitation assay of Aβ degradation in treated rats. Format: in vivo, rat. The note with it: rats treated 26 days, data not shown.
In series [9] the test system is LRP1. To be noted: 26 day treatment, Western blot, n = 5.
Series [10] concerns P-gp. Briefly: Western blot of hepatic P-gp expression in treated rats. In kind it is in vivo, rat. The note with it: 26 day treatment, n = 5.
For series [11], the system named is LRP1. Briefly: Western blot of hepatic LRP1 expression in treated rats. The note with it: 26 day treatment, n = 5. Format: in vivo, rat.
For series [12], the system named is Aβ40. The note with it: rat, in vivo.
For series [13], the system named is LRP1. Briefly: Western blot of LRP1 expression in RBE4 cells. Format: cell-based, rat. To be noted: 5 µM, 48 h, normalized, vs control, n = 4.
For series [14], the system named is Aβ42. The note with it: rat, in vivo.
Series [15] has as its system Sprague–Dawley male rats. The experiment in a line: Brain efflux index. To be noted: 60 min after intracerebral microinjection.

Turning to `COc1ccc2c3c1O[C@H]1C[C@@H](O)C=C[C@@]31CCN(C)C2` [galantamine, Galantamine hydrochloride], the “increase in LRP1 expression” value in [1] (vs control cells) came out at 1.2 fold. For the same compound, the “increase in P-gp expression” value in [2] is reported as 1.3 fold.

As for `CC12CC3CC(C)(C1)CC(N)(C3)C2` [memantine], the “effect on LRP1 expression (in words)” value in series [1] was “no effect”.

For `C/C=C(/C=O)[C@@H](CC=O)CC(=O)OCCc1ccc(O)cc1` [oleocanthal], the “increase in brain efflux of exogenously introduced Aβ40” value in [3] is recorded as 29%.

Take `CO[C@H]1/C=C/O[C@@]2(C)Oc3c(C)c(O)c4c(O)c(c(/C=N/N5CCN(C)CC5)c(O)c4c3C2=O)NC(=O)/C(C)=C\C=C\[C@H](C)[C@H](O)[C@@H](C)[C@@H](O)[C@@H](C)[C@H](OC(C)=O)[C@@H]1C` [rifampicin]: the “effect on biliary clearance of ^125I-Aβ (in words)” value in [4] is listed as “significantly increased”.

Take `CCN(C)C(=O)Oc1cccc([C@H](C)N(C)C)c1` [rivastigmine, rivastigmine L-tartrate]: the “hepatic uptake (extravascular extraction, E) of ^125I-Aβ40” value worked out at 64.0 ± 4.9% in series [5] (aged rats, 26 day treatment, mean ± SEM) and 64 ± 3.7% in series [5] (young rats, 26 day treatment, mean ± SEM). Also, the “increase in hepatic uptake of ^125I-Aβ40” value in series [5] (aged rats, 26 day treatment, vs vehicle-treated rats of the same age) was 119%. Also, the “increase in brain P-gp protein expression” value in series [6] (aged rats) amounted to 20%; in [6] (young rats), 36%. The figures for the “increase in P-gp expression” value in series [7] and in series [2] were “approximately 1.7 fold” and 1.3 fold, respectively. In series [8], the “effect on Aβ degradation” value was “no effect”. For the same compound, the results for the “increase in LRP1 expression” value in series [1] (vs control cells) and in series [13] were 1.7 fold and “approximately 1.7 fold”, respectively. Further, the figures for the “increase in brain LRP1 protein expression” value in series [9] (aged rats) and in series [9] (young rats) were 56% and 42%, respectively. In addition, the entries for the “increase in liver P-gp expression” value in [10] (aged rats) and in series [10] (young rats) were 81% and 47%, respectively. For the same compound, the “increase in liver LRP1 expression” value in [11] (aged rats) was 88%; in series [11] (young rats) it was 41%. Besides, in series [12], the “reduction of total brain Aβ40 level” value is listed as “approximately 52%”. Further, the “total Aβ40 level in brain” value in [12] amounted to 1713 ± 260 pmol/g brain tissue. In addition, the “reduction of total brain Aβ42 level” value in series [14] was “approximately 52%”. For the same compound, in [14], the “reduction trend in brain Aβ42 levels (in words)” value is reported as “not statistically significant”. Besides, the “total Aβ42 level in brain” value in series [14] is 466 ± 67 pmol/g brain tissue.

As to `Nc1c2c(nc3ccccc13)CCCC2` [tacrine, Tacrine hydrochloride], the “down-regulation of LRP1 expression” value in [1] (vs control cells) amounted to 20%.

Regarding ^125I-Aβ40, in series [5] (aged (24 months) vs young (4 months) rats), the “reduction of extravascular extraction (E) in aged compared to young rats” value worked out at 44%. Moreover, the “extravascular extraction or hepatic uptake of ^125I-Aβ40” value in [5] (vehicle-treated young rats, single pass into the portal vein, 18 s, mean ± SEM) was found to be 51.9 ± 2.4%. Moreover, the “^125I-Aβ40 BEI%” value in [15] (vehicle-treated aged rats (24 months)) was 47%; in series [15] (vehicle-treated young rats (4 months)), 59%.
